Assay results as given in patent US20260262643A1, “HERBICIDAL BENZOXAZINES” (FMC CORPORATION, priority 2022, published 2026).

Columns and labels:
wheat [1] = assay: Test A postemergence; type: in vivo, Triticum aestivum; details: postemergence, 10 days
Summary of the method: (§1)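 Loam/sand soil; pre-em directed soil spray at planting, post-em spray at 1–2 leaf (2–10 cm). Compound in non-phytotoxic solvent + surfactant. Greenhouse 10 d; visual injury vs untreated, 0 = no effect, 100 = complete control.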

ducksalad = assay: Test B flooded paddy test; type: in vivo, Heteranthera limosa; details: 250 g ai/ha, Flood, 13 days, 0 to 100 scale (0 no effect, 100 complete control)
Summary of the method: (§2)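 Plants at the 2-leaf stage were flooded to 3 cm above the soil, and test compounds were applied directly into the paddy water, with that depth held throughout. After 13 days in a greenhouse, injury was rated visually against untreated controls on a 0–100 scale (100 = complete control).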

rice = assay: Test B flooded paddy test; type: in vivo, Oryza sativa; details: 250 g ai/ha, Flood, 13 days, 0 to 100 scale (0 no effect, 100 complete control)
Summary of the method: as §2

ragweed [2] = assay: Test A preemergence; type: in vivo, Ambrosia artemisiifolia
Summary of the method: as §1

blackgrass [3] = assay: Test A preemergence; type: in vivo, Alopecurus myosuroides
Summary of the method: as §1

oat, wild [4] = assay: Test A postemergence; type: in vivo, Avena fatua; details: postemergence, 10 days
Summary of the method: as §1

foxtail, giant [5] = assay: Test A preemergence; type: in vivo, Setaria faberi
Summary of the method: as §1

wheat [6] = assay: Test A preemergence; type: in vivo, Triticum aestivum
Summary of the method: as §1

ragweed [7] = assay: Test A postemergence; type: in vivo, Ambrosia artemisiifolia; details: postemergence, 10 days
Summary of the method: as §1

kochia [8] = assay: Test A postemergence; type: in vivo, Bassia scoparia; details: postemergence, 10 days
Summary of the method: as §1

blackgrass [9] = assay: Test A postemergence; type: in vivo, Alopecurus myosuroides; details: postemergence, 10 days
Summary of the method: as §1

barnyardgrass = assay: Test B flooded paddy test; type: in vivo, Echinochloa crus-galli; details: 250 g ai/ha, Flood, 13 days, 0 to 100 scale (0 no effect, 100 complete control)
Summary of the method: as §2

goosegrass [10] = assay: Test A preemergence; type: in vivo, Eleusine indica
Summary of the method: as §1

pigweed, palmer [11] = assay: Test A preemergence; type: in vivo, Amaranthus palmeri
Summary of the method: as §1

foxtail, giant [12] = assay: Test A postemergence; type: in vivo, Setaria faberi; details: postemergence, 10 days
Summary of the method: as §1

galium = assay: Test A postemergence; type: in vivo, Galium aparine; details: postemergence, 10 days
Summary of the method: as §1

horseweed = assay: Test A postemergence; type: in vivo, Erigeron canadensis; details: postemergence, 10 days
Summary of the method: as §1

ryegrass, Italian [13] = assay: Test A preemergence; type: in vivo, Lolium multiflorum
Summary of the method: as §1

goosegrass [14] = assay: Test A postemergence; type: in vivo, Eleusine indica; details: postemergence, 10 days
Summary of the method: as §1

soybean [15] = assay: Test A preemergence; type: in vivo, Glycine max
Summary of the method: as §1

oat, wild [16] = assay: Test A preemergence; type: in vivo, Avena fatua
Summary of the method: as §1

pigweed, palmer [17] = assay: Test A postemergence; type: in vivo, Amaranthus palmeri; details: postemergence, 10 days
Summary of the method: as §1

sedge, umbrella = assay: Test B flooded paddy test; type: in vivo, Cyperus difformis; details: 250 g ai/ha, Flood, 13 days, 0 to 100 scale (0 no effect, 100 complete control)
Summary of the method: as §2

corn [18] = assay: Test A postemergence; type: in vivo, Zea mays; details: postemergence, 10 days
Summary of the method: as §1

kochia [19] = assay: Test A preemergence; type: in vivo, Bassia scoparia
Summary of the method: as §1

corn [20] = assay: Test A preemergence; type: in vivo, Zea mays
Summary of the method: as §1

ryegrass, Italian [21] = assay: Test A postemergence; type: in vivo, Lolium multiflorum; details: postemergence, 10 days
Summary of the method: as §1

soybean [22] = assay: Test A postemergence; type: in vivo, Glycine max; details: postemergence, 10 days
Summary of the method: as §1

[23] = 125 g ai/ha, 0 to 100 scale, 0 no effect, 100 complete control
[24] = 500 g ai/ha, visual injury, 0 to 100 scale (0 no effect, 100 complete control)
[25] = 125 g ai/ha, visual injury after 10 days, 0 to 100 scale, 0 is no effect, 100 is complete control
[26] = 500 g ai/ha, 0 to 100 scale (0 no effect, 100 complete control), 10 days

## CCc1ccc(-n2cnc(C3CC3)n2)cc1C(=O)N1C[C@H](C)Oc2c(Cl)cccc21 [Compound 103]
Wheat [1]; [23]
  Wheat plant response rating: 10
Wheat [1]; [24]
  Plant response rating, Wheat: 30
ducksalad
  Plant response rating, Ducksalad: 35
rice
  Plant response rating, Rice: 10
Ragweed [2]; [25]
  Plant response rating, Ragweed: 0
Ragweed [2]; [26]
  Plant response rating, Ragweed: 0
Blackgrass [3]; [25]
  Plant response rating, Blackgrass: 50
Blackgrass [3]; [26]
  Plant response rating, Blackgrass: 80
oat, wild [4]; [23]
  Oat, Wild plant response rating: 30
oat, wild [4]; [24]
  Plant response rating, Oat, Wild: 80
foxtail, giant [5]; [25]
  Plant response rating, Foxtail, Giant: 100
foxtail, giant [5]; [26]
  Plant response rating, Foxtail, Giant: 100
Wheat [6]; [25]
  Plant response rating, Wheat: 0
Wheat [6]; [26]
  Plant response rating, Wheat: 0
Ragweed [7]; [23]
  Ragweed plant response rating: 0
Ragweed [7]; [24]
  Plant response rating, Ragweed: 40
Kochia [8]; [23]
  Kochia plant response rating: 80
Kochia [8]; [24]
  Plant response rating, Kochia: 100
Blackgrass [9]; [23]
  Blackgrass plant response rating: 60
Blackgrass [9]; [24]
  Plant response rating, Blackgrass: 90
barnyardgrass
  Plant response rating, Barnyardgrass: 20
Goosegrass [10]; [25]
  Plant response rating, Goosegrass: 100
Goosegrass [10]; [26]
  Plant response rating, Goosegrass: 100
pigweed, palmer [11]; [25]
  Plant response rating, Pigweed, Palmer: 90
pigweed, palmer [11]; [26]
  Plant response rating, Pigweed, Palmer: 100
foxtail, giant [12]; [23]
  Foxtail, Giant plant response rating: 90
foxtail, giant [12]; [24]
  Plant response rating, Foxtail, Giant: 90
galium; [23]
  Galium plant response rating: 100
galium; [24]
  Plant response rating, Galium: 100
horseweed; [23]
  Horseweed plant response rating: 0
horseweed; [24]
  Plant response rating, Horseweed: 10
ryegrass, Italian [13]; [25]
  Plant response rating, Ryegrass, Italian: 80
ryegrass, Italian [13]; [26]
  Plant response rating, Ryegrass, Italian: 90
Goosegrass [14]; [23]
  Goosegrass plant response rating: 70
Goosegrass [14]; [24]
  Plant response rating, Goosegrass: 100
Soybean [15]; [25]
  Plant response rating, Soybean: 30
Soybean [15]; [26]
  Plant response rating, Soybean: 60
oat, wild [16]; [25]
  Plant response rating, Oat, Wild: 40
oat, wild [16]; [26]
  Plant response rating, Oat, Wild: 40
pigweed, palmer [17]; [23]
  Pigweed, Palmer plant response rating: 90
pigweed, palmer [17]; [24]
  Plant response rating, Pigweed, Palmer: 100
sedge, umbrella
  Plant response rating, Sedge, Umbrella: 100
Corn [18]; [23]
  Corn plant response rating: 10
Corn [18]; [24]
  Plant response rating, Corn: 80
Kochia [19]; [25]
  Plant response rating, Kochia: 50
Kochia [19]; [26]
  Plant response rating, Kochia: 90
Corn [20]; [25]
  Plant response rating, Corn: 20
Corn [20]; [26]
  Plant response rating, Corn: 20
ryegrass, Italian [21]; [23]
  Ryegrass, Italian plant response rating: 50
ryegrass, Italian [21]; [24]
  Plant response rating, Ryegrass, Italian: 60
Soybean [22]; [23]
  Soybean plant response rating: 100
Soybean [22]; [24]
  Plant response rating, Soybean: 100
